From article PMC8775498, “Development of Cobalt-Binding Peptide Chelate from Human Serum Albumin: Cobalt-Binding Properties and Stability” (International Journal of Molecular Sciences, 2022)
Where a SMILES comes first, the peptide text is derived from it.

Tests used:
[1] = test system: HEK 293T cells; assay type: cell-based, human
Protocol: (§1) RAW 264.7 and HEK 293T cells were cultured at 37 °C under 5% CO2 in 95% DMEM supplemented with 10% FBS and 1% P/S antibiotics. The RAW 264.7 and HEK 293T cells were harvested in 3 mL of DMEM, and centrifugation was performed at 1200× g using the AllegraTM X-12R centrifuge (BECKMAN COULTER). The cell pellet was resuspended in 1 mL of DMEM. The number of cells was counted using a hemocytometer. The cell viability was measured using MTT assay according to the method of Mirzapour-Kouhdasht, Moosavi-Nasab, with a few modifications. The cells were first plated at a density of a 5 × 10^4 cells/well in a 96-well plate. After overnight incubation, the wAlb12 and wAlb12 + Co(II) each dissolved in buffer were used to treat the cells by concentration, which were then incubated for 24 h at 37 °C. Next, 10 µL of 5 mg mL^−1 MTT stock solution was added to each well, and the plate was incubated for 4 h at 37 °C. Next, the medium was removed and 100 µL of DMSO was added to each well to lyse the cells. The treated cells were incubated at 37 °C for 20 min and their absorbance was measured at a wavelength of 600 nm using an ELISA reader (Autobio, Phomo). The percentage viability was calculated using the following formula:Cell viability (%) = [(As) − (Ab)]/[(Ac) − (Ab)] × 100 where As, Ab, and Ac are the absorbance values of the peptide-treated cells, blank, and control samples, respectively.

[2] = in vitro; assay type: cell-based, rat; conditions: mouse, RAW 264.7 cells
Protocol: as §1

[3] = LC-MS analysis of Co(II) binding (alanine scanning analogs); conditions: 0.5 mM peptide mixed with 0.5 mM CoCl2; judged by change in molecular weight (about 56) and retention time in LC-MS
Protocol: A mutation was performed to identify the binding properties of wAlb12. […] amino acids of wAlb12 were substituted with alanine and the remaining alanine of wAlb12 was substituted with serine (D1A, A2S, H3A, K4A, S5A, E6A, V7A, A8S, H9A, R10A, F11A, and K12A). In addition, the N-terminal region of wAlb12 was acetylated (Ac-wAlb12). The only N-terminal α-amino group of wAlb12 was acetylated under 70% DCM, 25% acetic anhydride, and 5% triethylamine for 2 h after Fmoc cleavage by 20% piperidine. All of the analogs were synthesized by SPPS, and the purity and molecular weight were confirmed using liquid chromatography-mass spectrometry (LC-MS). The high-performance liquid chromatography (HPLC) gradient program was set up with 5% to 35% buffer B for 15 min, and the molecular weights of the prepared analogs were confirmed using MS in the range of 200 to 1800 m/z.
To verify the binding of peptides to Co(II), HPLC and LC-MS were performed to confirm the retention time and molecular weight. RT-HPLC analyses were performed using Shimadzu 10AD system with a Sunfire® column (C18 5 μm 4.6 mm × 250 mm, Waters, Milford, MA, USA) and a flow rate of 1 mL/min with buffer B (100% acetonitrile containing 0.05% TFA) and buffer A (100% H2O containing 0.05% TFA). The eluted components were monitored at an absorbance of 230 nm with a gradient from 5% to 35% of buffer B for 15 min. […]

CC(C)[C@H](NC(=O)[C@H](CCC(=O)O)NC(=O)[C@H](CO)NC(=O)[C@H](CCCCN)NC(=O)[C@H](Cc1c[nH]cn1)NC(=O)[C@H](C)NC(=O)[C@@H](N)CC(=O)O)C(=O)N[C@@H](C)C(=O)N[C@@H](Cc1c[nH]cn1)C(=O)N[C@@H](CCCNC(=N)N)C(=O)N[C@@H](Cc1ccccc1)C(=O)N[C@@H](CCCCN)C(N)=O [wAlb12] (H-DAHKSEVAHRFK-NH2)
toxicity to HEK 293T cells [1]: non-toxic
viability at 24 h [2]: > 100%

Ac-DAHKSEVAHRFK [Ac-wAlb12, wAlb12 with acetylated N-terminal α-amino group]
Binding (adding Co(II)) [3]: not bound and No
